For one data set, the target named is human FAAH-1 (Homo sapiens (Human), UniProt O00519). As to the kind of experiment: In vitro human FAAH fluorescent assay. The note with it: human FAAH-1 membrane preparation from HEK-293, 50 min pre-incubation at 37° C.; read-out: h-FAAH IC50. It counts as biochemical. How it is done: In Vitro Human FAAH Fluorescent Assay
Human recombinant FAAH was obtained from a HEK-293 cell line stably overexpressing human FAAH-1 enzyme. Cells were grown in Dulbecco's Modified Eagle Medium (DMEM) medium containing 10% FBS, 1% pen/strep, 1% glutamine and 500 μg/mL G418. To obtain membrane preparation cells were scraped off with cold PBS and collected by centrifugation (500×g, 10 min, 4° C.); the cell pellet was re-suspended in 20 mM Tris-HCl pH 7.4, 0.32M sucrose, disrupted by sonication (10 pulses, 5 times) and centrifuged (800×g, 15 min, 4° C.); the collected supernatant was centrifuged at 105,000×g for 1 h at 4° C. and the pellet was re-suspended in PBS.
The fluorescent assay to measure FAAH activity was performed in 96 wells black plates: 2.5 μg of human FAAH-1 membrane preparation were pre-incubated for 50 min at 37° C., in 180 µL of assay buffer (50 mM TrisHCl pH 7.4, 0.05% Fatty acid-free-BSA) with 10 μL of inhibitor (at appropriate concentration in DMSO) or 10 μL DMSO to measure FAAH total activity. The background (no activity) samples were prepared using 180 μL of assay buffer without human FAAH-1 and 10 μL of DMSO. The reaction was then started by the addition of 10 μL of a 40 μM substrate solution (N. 10005098, Cayman Chemical) dissolved in ethanol, and used at a final concentration of 2 μM. The reaction was carried out for 30 min at 37° C. and fluorescence was measured with a Tecan Infinite M200 nanoquant plate reader (excitation wavelength 350 nm/emission wavelength 460 nm).
(§1) Concentrations causing half-maximal inhibition of FAAH, IC50 values, were determined by non-linear regression analysis of the Log [concentration]/response curves generated with mean replicate values using a four parameter Hill equation curve fitting with GraphPad Prism 5 (GraphPad Software Inc., CA—USA).

Data set [1] in a line: Pharmacokinetic experiment in cannulated Sprague-Dawley rats (PO and IV). The note with it: plasma, rat; for bioavailability: PO 10 mg/kg vs IV 3 mg/kg, read-out: Oral bioavailability (F %). It counts as in vivo. As to the method: Pharmacokinetic Experiment and Analysis
Compounds were administered orally (PO) and intravenously (IV) to cannulated Sprague-Dawley rats at 10 and 3 mg/kg, respectively. Vehicle was: PEG400/Tween 80/Saline solution at 10/10/80 (% in volume), respectively. Three animals per dose were treated. Blood samples at 0, 15, 30, 60, 120, 240, 480 and 1440 min after administration were collected for PO arm. Blood samples at 0, 5, 15, 30, 60, 120 and 240 min after administration were collected for IV arm. Plasma was separated from blood by centrifugation for 15 min at 3500 rpm a 4° C., collected in a Eppendorf tube and frozen (−80° C.). Control animals treated with vehicle only were also included in the experimental protocol.
Preparation of Samples, Standard Curve and QC Samples for UPLC-MS Analysis
Samples were thawed in an ice bath and after a short centrifugation transferred (50 μL) into a 96-deepwell plate and added with 150 μL of acetonitrile spiked with 200 nM Warfarin (the Internal Standard, I.S.). After agitation (3 min) the plate was centrifuged at 3000 g for 10 min at 4° C. 80 μL of supernatant was then transferred in a 96-well plate and added with 80 μL of water. Standard compound was spiked in neat solvent (PBS pH 7.4 added with 10% acetonitrile) to prepare a calibration curve over the 1 nM-10 μM range. Three quality controls (QCs) samples were also prepared spiking the compound in blank rat plasma to final 20, 200 and 2000 nM concentrations. Calibrators and QCs were crashed with acetonitrile spiked with the I.S. as described for the plasma samples. Dosing solutions, previously diluted 2000 fold in the neat solvent were also included in the samples and tested.
Compounds plasma levels were monitored on a Xevo TQ UPLC-MS/MS system (Waters, Milford USA), using the calibration curve and the internal standard (Warfarin). Chromatography was carried out on a Acquity BEH C18 column (2.1×50 mmID, 1.7 m particle size, Waters, Milford USA). Flow rate was 0.5 mL/min. The mobile phase was (A) H2O/0.1% formic acid; (B) MeCN/0.1% formic acid. A linear gradient was applied from 5 to 100% B in 2 min. 3 μL of each sample were loaded on column. MS parameters and multiple reaction monitoring (MRM) transitions were carefully tuned for each compound. Plasma levels data were analyzed using PKSolutions excel application (Summit Research Service, USA) to derive the most important pharmacokinetic parameters.
The oral bioavailability (F %) data, and the Area Under the Curve (AUC) data (ng×min/mL) corresponding to the IV (3 mg/kg) and PO (10 mg/kg) dose of selected compounds described in the Examples are reported in Table 3. Their F % data are in the range from 35 to 87.

Another data set addresses Rat FAAH (Rattus norvegicus (Rat), UniProt P97612). As to the kind of experiment: In vitro rat FAAH radiometric assay. It counts as biochemical. The conditions noted are these: rat brain homogenate, 10 min pre-incubation at 37° C.; read-out: r-FAAH IC50. How it is done:
In Vitro Rat FAAH Radiometric Assay
Rat FAAH was prepared from male Sprague Dawley rat brains, homogenized in a potter in 20 mM of Tris HCl pH 7.4, 0.32 M sucrose.
The radiometric assay used to measure FAAH activity was performed in Eppendorf tubes: 50 μg of total rat brain homogenate were pre-incubated in 445.5 μL of assay buffer (50 mM Tris-HCl pH 7.4, 0.05% Fatty acid-free-bovine serum albumin (BSA)) with 4.5 μL of inhibitor (at appropriate concentration in DMSO) or DMSO alone (to measure FAAH total activity) for 10 min at 37° C. The blank (no activity control) was prepared using 445.5 μL of assay buffer and 4.5 μL of DMSO without the 50 μg of total rat brain homogenate.
After 10 min of pre-incubation with test compounds, the reaction was started by adding of 50 μL of substrate and incubating for 30 min at 37° C. The substrate was prepared in assay buffer in order to achieve the final concentration of 1 μM arachidonoyl ethanolamide (Cayman Chemical N. 90050) and 0.6 nM anandamide [ethanolamine-1-^3H] (American Radiolabeled Chemicals Inc, ART. 0626, Conc. 1 mCi/mL, S.A. 60 Ci/mmol). The reaction was stopped by adding cold 1:1 CHCl3/MeOH. After 10 min of centrifugation (845×g at 4° C.) 600 μL of aqueous phase were transferred into scintillation vials previously filled with 3 mL of scintillation fluid (Ultima Gold™, Perkin Elmer Inc., Cat. 6013329). Radioactivity was measured by liquid scintillation counting (MicroBeta2 LumiJET Perkin Elmer Inc.).
as §1

Data set [2] can be described thus: Aqueous kinetic solubility assay. The conditions noted are these: phosphate buffered saline, aqueous buffer, kinetic from dmso stock, PBS pH 7.4, target 250 μM, 2.5% DMSO, 25° C. It counts as physicochemical. As to the method:
Aqueous Kinetic Solubility Assay
The aqueous kinetic solubility was determined from a 10 mM DMSO stock solution of test compound in Phosphate Buffered Saline (PBS) at pH 7.4.
The study was performed by incubation of an aliquot of 10 mM DMSO stock solution in PBS (pH 7.4) at a target concentration of 250 μM resulting in a final concentration of 2.5% DMSO. The incubation was carried out under shaking at 25° C. for 24 h followed by centrifugation. The supernatant was analyzed by UPLC/MS for the quantification of dissolved compound by UV at a specific wavelength (215 nm).
The aqueous kinetic solubility (in μM) was calculated by dividing the peak area of the supernatant by the peak area of the test compound reference and further multiplied by the concentration of the test compound reference and dilution factor.
The UPLC/MS analyses were performed on a Waters ACQUITY UPLC/MS system consisting of a SQD (Single Quadrupole Detector) Mass Spectrometer equipped with an Electrospray Ionization interface and a Photodiode Array Detector. The PDA range was 210-400 nm. The analyses were run on an ACQUITY UPLC BEH C18 column (50×2.1 mmID, particle size 1.7 m) with a VanGuard BEH C18 pre-column (5×2.1 mmID, particle size 1.7 μm). The mobile phase was 10 mM NH4OAc in H2O at pH 5 adjusted with AcOH (A) and 10 mM NH4OAc in MeCN—H2O (95:5) at pH 5 (B). Electrospray ionization in positive and negative mode was applied in the mass scan range 100-500 Da.

Setting [3] is: IV, 3 mg/kg, read-out: AUC IV (3 mg/kg) (converted).
The mark [4] stands for this setting: PO, 10 mg/kg, read-out: AUC PO (10 mg/kg) (converted).

pIC50: −log10 of the molar value. ≈ marks a conversion by molar mass, not a printed value. Read-outs that look alike come from different tables or passages of the source.

Chain of human FAAH-1 (O00519 whole entry): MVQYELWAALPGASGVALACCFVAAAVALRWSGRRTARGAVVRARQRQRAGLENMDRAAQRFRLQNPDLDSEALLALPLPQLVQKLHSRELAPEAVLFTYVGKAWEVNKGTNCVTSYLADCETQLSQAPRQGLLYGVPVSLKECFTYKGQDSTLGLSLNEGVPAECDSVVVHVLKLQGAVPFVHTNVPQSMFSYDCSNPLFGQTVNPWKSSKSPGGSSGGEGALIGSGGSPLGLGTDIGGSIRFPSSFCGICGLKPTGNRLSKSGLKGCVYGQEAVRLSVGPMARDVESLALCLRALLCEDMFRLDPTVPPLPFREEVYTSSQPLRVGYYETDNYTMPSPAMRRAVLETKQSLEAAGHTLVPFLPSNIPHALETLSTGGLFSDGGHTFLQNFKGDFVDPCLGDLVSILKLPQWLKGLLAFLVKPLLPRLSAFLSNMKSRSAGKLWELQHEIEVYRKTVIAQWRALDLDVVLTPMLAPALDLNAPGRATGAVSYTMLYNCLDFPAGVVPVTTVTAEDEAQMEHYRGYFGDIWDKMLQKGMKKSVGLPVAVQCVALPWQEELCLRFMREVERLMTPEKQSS
Chain of Rat FAAH (P97612 whole entry): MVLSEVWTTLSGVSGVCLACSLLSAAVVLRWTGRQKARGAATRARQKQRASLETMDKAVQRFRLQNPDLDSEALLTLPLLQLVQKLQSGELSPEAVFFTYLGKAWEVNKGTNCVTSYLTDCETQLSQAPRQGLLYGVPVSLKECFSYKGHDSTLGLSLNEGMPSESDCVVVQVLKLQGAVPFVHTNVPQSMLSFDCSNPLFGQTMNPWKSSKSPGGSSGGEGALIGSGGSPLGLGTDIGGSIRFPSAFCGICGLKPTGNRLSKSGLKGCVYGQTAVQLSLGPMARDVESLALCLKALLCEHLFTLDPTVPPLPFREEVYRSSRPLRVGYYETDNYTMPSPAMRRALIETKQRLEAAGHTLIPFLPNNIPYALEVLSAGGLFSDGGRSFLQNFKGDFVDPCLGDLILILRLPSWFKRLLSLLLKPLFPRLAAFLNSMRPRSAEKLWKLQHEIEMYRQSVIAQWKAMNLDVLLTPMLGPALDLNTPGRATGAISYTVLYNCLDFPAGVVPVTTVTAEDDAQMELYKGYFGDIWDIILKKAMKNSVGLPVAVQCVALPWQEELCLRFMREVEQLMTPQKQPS

For `CNC(=O)c1cccc(-c2cc(OC(=O)NC3CCCCC3)ccc2F)c1` [Example 1, [4-fluoro-3-[3-(methylcarbamoyl)phenyl]phenyl]N-cyclohexylcarbamate], the pIC50 at human FAAH-1 is 7.92; on Rat FAAH, 8.85. Besides, the bioavailability in data set [1] came out at 87%. For the same compound, the figures for the AUC in data set [1] (setting [3]) and in data set [1] (setting [4]) were 1280 ng·h/mL and 3700 ng·h/mL, respectively. Besides, the kinetic solubility at 24 h in data set [2] came to 28 µM (≈ 10.4 µg/mL).
In the case of `NS(=O)(=O)c1cccc(-c2cc(OC(=O)NC3CCCCC3)ccc2F)c1` [Example 2, [4-fluoro-3-(3-sulfamoylphenyl)phenyl] N-cyclohexylcarbamate], the pIC50 on human FAAH-1 is 7.96; at Rat FAAH, 9.15. The bioavailability in data set [1] came to 35%. In addition, the AUC was 746 ng·h/mL in data set [1] (setting [3]) and 867 ng·h/mL in data set [1] (setting [4]). This compound gave a solubility (kinetic) at 24 h in data set [2] of 28 µM (≈ 11 µg/mL).
Consider `CNC(=O)c1cccc(-c2cc(OC(=O)NC3CCCCC3)ccc2OC(F)F)c1` [Example 9, [4-(difluoromethoxy)-3-[3-(methylcarbamoyl)phenyl]phenyl] N-cyclohexyl carbamate], for which the pIC50 at human FAAH-1 is 7.92; at Rat FAAH, 8.46. Also, the bioavailability in data set [1] came to 53%. In addition, the AUC is 1390 ng·h/mL in data set [1] (setting [3]) and 2480 ng·h/mL in data set [1] (setting [4]). Further, the kinetic solubility at 24 h in data set [2] worked out at 8 µM (≈ 3.35 µg/mL).
As for `NC(=O)c1cccc(-c2cc(OC(=O)NC3CCC3)ccc2F)c1` [Example 3, [3-(3-carbamoylphenyl)-4-fluoro-phenyl] N-cyclobutylcarbamate], the pIC50 on human FAAH-1 is 8.74; at Rat FAAH it was 9.05. Further, the bioavailability in data set [1] worked out at 79%. Further, the AUC in data set [1] (setting [3]) was 498 ng·h/mL; in data set [1] (setting [4]), 1310 ng·h/mL. This compound also showed a kinetic solubility at 24 h in data set [2] of 33 µM (≈ 10.8 µg/mL).

These data come from US9822068B2, “Inhibitors of fatty acid amide hydrolase (FAAH) enzyme with improved oral bioavailability and their use as medicaments” (THE REGENTS OF THE UNIVERSITY OF CALIFORNIA, priority 2014, dated 2017).
